Results published in patent US20160251341A1, “SUBSTITUTED TRIAZOLE COMPOUNDS AS SERINE PROTEASE INHIBITORS” (Verseon Corporation, priority 2015, published 2016).

System: malignant breast tumors
Test: not given
Details: at 4 weeks, treated mice; cited from earlier work

Row | SMILES | reduction in tumor volume [%] | weight loss
1 | CCCCCCOC(=O)NC(=N)c1ccc(NCc2nc3cc(C(=O)N(CCC(=O)OCC)c4ccccn4)ccc3n2C)cc1 [dabigatran etexilate] | 50 | no weight loss

Same assay, conditions: treated mice; cited from earlier work

Row | SMILES | reduced tumor cells in the blood and liver micrometastases
2 | CCCCCCOC(=O)NC(=N)c1ccc(NCc2nc3cc(C(=O)N(CCC(=O)OCC)c4ccccn4)ccc3n2C)cc1 [dabigatran etexilate] | 50-60%

Target: T1, Human thrombin (Homo sapiens, UniProt P00734)
T1 construct: purchased Haematologic Technologies Inc
Test: Thrombin protease inhibition assay (chromogenic substrate S-2238)
Assay type: biochemical
Details: 3 nM human thrombin, 125 μM S-2238, 10 min pre-incubation, RT
Description: The thrombin activity reported herein (e.g., Table A) was obtained as follows. Human thrombin was obtained from Haematologic Technologies Inc. The chromogenic substrate S-2238 was obtained from DiaPharma. Thrombin was assayed in buffer containing 0.05 M Tris (pH 7.4), 0.015 M NaCl and 0.01% PEG-8000. The final concentration of enzyme used was 3 nM thrombin. The final concentration of substrate used was 125 μM S-2238 for thrombin. All assays were performed in 96-well microtiter plates at room temperature (RT). The enzyme and inhibitor were pre-incubated for 10 minutes then substrate was added and read at 405 nm in a SpectraMax Plus Spectrophotometer (Molecular Devices). Inhibitor IC50 values were determined by adding test compound as ten point, three-fold serial dilutions in buffer solution, as known in the art. The plate was read at 10 minutes after substrate addition. The IC50 was calculated by plotting the percent (%) inhibition against compound concentration and fitting the data to a constrained four parameter sigmoidal curve, as known in the art.

Row | SMILES | IC50 [nM]
3 | O=C(c1ccoc1)n1nc(C2CCOCC2)nc1NCc1ccc(Cl)s1 [Entry 51, N-[(5-chlorothiophen-2-yl)methyl]-1-(furan-3-carbonyl)-3-(oxan-4-yl)-1H-1,2,4-triazol-5-amine] | ≤ 100
4 | COc1ccccc1C(=O)n1nc(C2CCN(S(C)(=O)=O)CC2)nc1NCc1ccc(Cl)s1 [Entry 55, N-[(5-chlorothiophen-2-yl)methyl]-3-(1-methanesulfonylpiperidin-4-yl)-1-(2-methoxybenzoyl)-1H-1,2,4-triazol-5-amine] | ≤ 100
5 | COC1CCCCC1c1n[nH]c(NCc2ccc(Cl)s2)n1 (centres unmarked) [Entry 56, N-[(5-chlorothiophen-2-yl)methyl]-3-(2-methoxycyclohexyl)-1H-1,2,4-triazol-5-amine] | 1000 to 10000
6 | O=C(c1ccsc1)n1nc(C2CCOCC2)nc1NCc1ccc(Cl)s1 [Entry 57, N-[(5-chlorothiophen-2-yl)methyl]-3-(oxan-4-yl)-1-(thiophene-3-carbonyl)-1H-1,2,4-triazol-5-amine] | ≤ 100
7 | Clc1ccc(CNc2nc(C3CCOCC3)n[nH]2)s1 [Entry 58, N-[(5-chlorothiophen-2-yl)methyl]-3-(oxan-4-yl)-1H-1,2,4-triazol-5-amine] | ≥ 100000
8 | O=C(c1ccsc1)n1nc(C2CCCO2)nc1NCc1ccc(Cl)s1 (centres unmarked) [Entry 59, N-[(5-chlorothiophen-2-yl)methyl]-3-(oxolan-2-yl)-1-(thiophene-3-carbonyl)-1H-1,2,4-triazol-5-amine] | ≤ 100
9 | Clc1ccc(CNc2nc(C3CCCO3)n[nH]2)s1 (centres unmarked) [Entry 60, N-[(5-chlorothiophen-2-yl)methyl]-3-(oxolan-2-yl)-1H-1,2,4-triazol-5-amine] | ≥ 100000
10 | Clc1ccc(CNc2nc(C3CCOC3)n[nH]2)s1 (centres unmarked) [Entry 62, N-[(5-chlorothiophen-2-yl)methyl]-3-(oxolan-3-yl)-1H-1,2,4-triazol-5-amine] | ≥ 100000
11 | COc1ccccc1C(=O)n1nc(C2CN(S(=O)(=O)C3CCCCC3)C2)nc1NCc1ccc(Cl)s1 [Entry 63, N-[(5-chlorothiophen-2-yl)methyl]-3-[1-(cyclohexanesulfonyl)azetidin-3-yl]-1-(2-methoxybenzoyl)-1H-1,2,4-triazol-5-amine] | ≤ 100
12 | COc1ccccc1C(=O)n1nc(C2CCN(S(=O)(=O)C3CCCCC3)CC2)nc1NCc1ccc(Cl)s1 [Entry 64, N-[(5-chlorothiophen-2-yl)methyl]-3-[1-(cyclohexanesulfonyl)piperidin-4-yl]-1-(2-methoxybenzoyl)-1H-1,2,4-triazol-5-amine] | ≤ 100
13 | COc1ccccc1C(=O)n1nc(C2CCOCC2)nc1NCc1ccccc1 [Entry 65, N-benzyl-1-(2-methoxybenzoyl)-3-(oxan-4-yl)-1H-1,2,4-triazol-5-amine] | 1000 to 10000
14 | c1ccc(CNc2nc(C3CCOCC3)n[nH]2)cc1 [Entry 66, N-benzyl-3-(oxan-4-yl)-1H-1,2,4-triazol-5-amine] | ≥ 100000
15 | COc1ccccc1C(=O)n1nc(C2CCCN2C(=O)OC(C)(C)C)nc1NCc1ccc(Cl)s1 (centres unmarked) [Entry 68, tert-butyl 2-(5-[(5-chlorothiophen-2-yl)methyl]amino-1-(2-methoxybenzoyl)-1H-1,2,4-triazol-3-yl)pyrrolidine-1-carboxylate] | 100 to 1000
16 | CC(C)(C)OC(=O)N1CCCC1c1n[nH]c(NCc2ccc(Cl)s2)n1 (centres unmarked) [Entry 69, tert-butyl 2-(5-[(5-chlorothiophen-2-yl)methyl]amino-1H-1,2,4-triazol-3-yl)pyrrolidine-1-carboxylate] | ≥ 100000
17 | CC(C)(C)OC(=O)N1CC(c2n[nH]c(N)n2)C1 [Entry 70, tert-butyl 3-(5-amino-1H-1,2,4-triazol-3-yl)azetidine-1-carboxylate] | ≥ 100000
18 | COc1ccccc1C(=O)n1nc(C2CCN(C(=O)OC(C)(C)C)CC2)nc1NCc1ccc(Cl)s1 [Entry 74, tert-butyl 4-(5-[(5-chlorothiophen-2-yl)methyl]amino-1-(2-methoxybenzoyl)-1H-1,2,4-triazol-3-yl)piperidine-1-carboxylate] | ≤ 100
19 | CC(C)(C)OC(=O)N1CCC(c2n[nH]c(NCc3ccc(Cl)s3)n2)CC1 [Entry 75, tert-butyl 4-(5-[(5-chlorothiophen-2-yl)methyl]amino-1H-1,2,4-triazol-3-yl)piperidine-1-carboxylate] | ≥ 100000

Next, values leading:

Row | IC50 [nM] | SMILES
20 | ≤ 100 | O=C(c1ccoc1)n1nc(C2CCCO2)nc1NCc1ccc(Cl)s1 (centres unmarked) [Entry 52, N-[(5-chlorothiophen-2-yl)methyl]-1-(furan-3-carbonyl)-3-(oxolan-2-yl)-1H-1,2,4-triazol-5-amine]
21 | ≤ 100 | O=C(c1ccoc1)n1nc(C2CCOC2)nc1NCc1ccc(Cl)s1 (centres unmarked) [Entry 53, N-[(5-chlorothiophen-2-yl)methyl]-1-(furan-3-carbonyl)-3-(oxolan-3-yl)-1H-1,2,4-triazol-5-amine]
22 | ≤ 100 | COc1ccccc1C(=O)n1nc(C2CN(S(C)(=O)=O)C2)nc1NCc1ccc(Cl)s1 [Entry 54, N-[(5-chlorothiophen-2-yl)methyl]-3-(1-methanesulfonylazetidin-3-yl)-1-(2-methoxybenzoyl)-1H-1,2,4-triazol-5-amine]
23 | ≤ 100 | O=C(c1ccsc1)n1nc(C2CCOC2)nc1NCc1ccc(Cl)s1 (centres unmarked) [Entry 61, N-[(5-chlorothiophen-2-yl)methyl]-3-(oxolan-3-yl)-1-(thiophene-3-carbonyl)-1H-1,2,4-triazol-5-amine]
24 | ≥ 100000 | CC(C)(C)OC(=O)N1CCCC1c1n[nH]c(N)n1 (centres unmarked) [Entry 67, tert-butyl 2-(5-amino-1H-1,2,4-triazol-3-yl)pyrrolidine-1-carboxylate]
25 | ≤ 100 | COc1ccccc1C(=O)n1nc(C2CN(C(=O)OC(C)(C)C)C2)nc1NCc1ccc(Cl)s1 [Entry 71, tert-butyl 3-(5-[(5-chlorothiophen-2-yl)methyl]amino-1-(2-methoxybenzoyl)-1H-1,2,4-triazol-3-yl)azetidine-1-carboxylate]
26 | ≥ 100000 | CC(C)(C)OC(=O)N1CC(c2n[nH]c(NCc3ccc(Cl)s3)n2)C1 [Entry 72, tert-butyl 3-(5-[(5-chlorothiophen-2-yl)methyl]amino-1H-1,2,4-triazol-3-yl)azetidine-1-carboxylate]
27 | ≥ 100000 | CC(C)(C)OC(=O)N1CCC(c2n[nH]c(N)n2)CC1 [Entry 73, tert-butyl 4-(5-amino-1H-1,2,4-triazol-3-yl)piperidine-1-carboxylate]
28 | ≤ 100 | COc1ccccc1C(=O)n1nc(C2CCN(C(=O)OC(C)(C)C)CC2)nc1NCc1ccccc1 [Entry 76, tert-butyl 4-[5-(benzylamino)-1-(2-methoxybenzoyl)-1H-1,2,4-triazol-3-yl]piperidine-1-carboxylate]
